target: T1, hROCK-2 (Homo sapiens, UniProt O75116); assay: ROCK-2 Assay (33P-ATP FlashPlate kinase assay, biotinylated S6 peptide); format: biochemical; conditions: hROCK-2 0.8 nM, 5 μM ATP, 1.5 μM biotinylated S6 peptide, room temperature, 60 min
T1 construct: purchased Upstate
Method: The reaction is stopped by addition of 150 μl of 0.1 M EDTA in Dulbecco's PBS. 170 μl from each well are loaded onto a FlashPlate (PerkinElmer) and incubated at room temperature for 30 min.

T1 sequence (O75116 whole entry): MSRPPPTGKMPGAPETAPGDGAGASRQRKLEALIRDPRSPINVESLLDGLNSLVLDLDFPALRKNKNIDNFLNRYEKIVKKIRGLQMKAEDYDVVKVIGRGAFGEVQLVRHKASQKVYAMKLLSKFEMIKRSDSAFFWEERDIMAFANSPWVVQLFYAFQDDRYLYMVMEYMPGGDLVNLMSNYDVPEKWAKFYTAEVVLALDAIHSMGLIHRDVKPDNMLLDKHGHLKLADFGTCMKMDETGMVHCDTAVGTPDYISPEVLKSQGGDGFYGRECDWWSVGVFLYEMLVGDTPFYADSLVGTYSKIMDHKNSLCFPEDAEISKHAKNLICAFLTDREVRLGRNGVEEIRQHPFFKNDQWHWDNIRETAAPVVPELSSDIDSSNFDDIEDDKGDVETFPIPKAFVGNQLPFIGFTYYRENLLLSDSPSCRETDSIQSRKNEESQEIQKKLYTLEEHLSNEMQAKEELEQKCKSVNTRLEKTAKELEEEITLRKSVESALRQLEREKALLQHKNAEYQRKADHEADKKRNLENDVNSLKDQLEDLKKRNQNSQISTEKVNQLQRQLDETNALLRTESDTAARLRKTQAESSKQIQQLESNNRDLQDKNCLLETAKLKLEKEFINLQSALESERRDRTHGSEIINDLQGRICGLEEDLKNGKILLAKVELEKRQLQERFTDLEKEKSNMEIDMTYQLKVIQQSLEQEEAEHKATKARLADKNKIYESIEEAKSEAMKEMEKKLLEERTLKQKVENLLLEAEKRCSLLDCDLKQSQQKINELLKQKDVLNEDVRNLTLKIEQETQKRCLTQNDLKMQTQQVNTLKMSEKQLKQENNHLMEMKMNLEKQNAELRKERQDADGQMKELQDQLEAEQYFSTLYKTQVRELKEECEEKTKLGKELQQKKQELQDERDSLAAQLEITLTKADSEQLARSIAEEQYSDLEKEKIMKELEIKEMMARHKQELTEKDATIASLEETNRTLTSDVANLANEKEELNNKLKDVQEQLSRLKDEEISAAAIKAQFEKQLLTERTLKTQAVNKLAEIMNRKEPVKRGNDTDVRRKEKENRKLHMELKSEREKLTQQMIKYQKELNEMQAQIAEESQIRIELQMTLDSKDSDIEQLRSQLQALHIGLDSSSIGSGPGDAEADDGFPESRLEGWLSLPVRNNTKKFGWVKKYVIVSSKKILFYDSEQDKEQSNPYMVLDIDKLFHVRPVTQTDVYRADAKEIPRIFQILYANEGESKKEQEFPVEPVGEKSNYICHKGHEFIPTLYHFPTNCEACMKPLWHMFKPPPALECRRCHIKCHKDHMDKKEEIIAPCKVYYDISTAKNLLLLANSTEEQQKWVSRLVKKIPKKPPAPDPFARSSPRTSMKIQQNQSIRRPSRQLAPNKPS

Structure (SMILES)	Ki [nM]
O=C(NC(Cc1ccccc1)c1ccccc1)c1ccc(-c2ccncc2)cc1 (centres unmarked) [Example 48, N-(1,2-diphenylethyl)-4-pyridin-4-ylbenzamide]	50 to 500
C[C@@H](NC(=O)c1ccc(-c2ccncc2)cc1Cl)c1ccccc1 [Example 191, 2-chloro-N—((R)-1-phenyl-ethyl)-4-pyridin-4-yl-benzamide]	50 to 500
Cc1cnccc1-c1ccc(C(=O)N[C@H](C)c2ccc(Br)cc2)cc1 [Example 166, N—[(R)-1-(4-bromo-phenyl)-ethyl]-4-(3-methyl-pyridin-4-yl)-benzamide]	50 to 500
O=C(N[C@@H](c1ccccc1)[C@H](O)c1ccccc1)c1ccc(-c2ccncc2)cc1 [Example 29, N-[(1S,2R)-2-hydroxy-1,2-diphenylethyl]-4-pyridin-4-ylbenzamide]	50 to 500
C[C@@H](NC(=O)c1ccc(-c2ccncc2)cc1)c1ccc(F)cc1 [Example 85, N-[(1R)-1-(4-fluorophenyl)ethyl]-4-pyridin-4-ylbenzamide]	< 50
CC(C)Oc1cccc(C(C)NC(=O)c2ccc(-c3ccncc3)cc2)c1 (centres unmarked) [Example 152, N-[1-(3-isopropoxy-phenyl)-ethyl]-4-pyridin-4-yl-benzamide]	< 50
Cc1cnccc1-c1ccc(C(=O)NC(CO)c2cc(Cl)cc(Cl)c2)cc1 (centres unmarked) [Example 185, N-[1-(3,5-dichloro-phenyl)-2-hydroxy-ethyl]-4-(3-methyl-pyridin-4-yl)-benzamide]	50 to 500
C[C@@H](NC(=O)c1ccc(-c2ccncc2)cc1)c1ccccc1F [Example 88, N-[(1R)-1-(2-fluorophenyl)ethyl]-4-pyridin-4-ylbenzamide]	< 50
COc1cccc([C@@H](C)NC(=O)c2ccc(-c3ccncc3)c(OC)c2)c1 [Example 97, 3-methoxy-N—[(R)-1-(3-methoxy-phenyl)-ethyl]-4-pyridin-4-yl-benzamide]	< 50
COc1cccc([C@@H](C)NC(=O)c2ccc(-c3ccncc3)c(F)c2)c1 [Example 244, 3-fluoro-N—[(R)-1-(3-methoxy-phenyl)-ethyl]-4-pyridin-4-yl-benzamide]	< 50
COc1cc(-c2ccncc2)ccc1C(=O)N[C@H](C)c1cccc(C(F)(F)F)c1 [Example 132, 2-methoxy-4-pyridin-4-yl-N—[(R)-1-(3-trifluoromethyl-phenyl)-ethyl]-benzamide]	< 50
CCC(NC(=O)c1ccc(-c2ccncc2)cc1)c1ccccc1 (centres unmarked) [Example 75, N-(1-phenylpropyl)-4-pyridin-4-ylbenzamide]	< 50
COc1cc(-c2ccncc2)ccc1C(=O)NC(CO)c1cccc2ccccc12 (centres unmarked) [Example 140, N-(2-hydroxy-1-naphthalen-1-yl-ethyl)-2-methoxy-4-pyridin-4-ylbenzamide]	< 50
Cc1cnccc1-c1ccc(C(=O)N[C@H](C)c2ccccc2)cc1 [Example 157, 4-(3-methyl-pyridin-4-yl)-N—((R)-1-phenyl-ethyl)-benzamide]	< 50
COc1cc(-c2ccncc2)ccc1C(=O)N[C@H](C)c1ccc2ccccc2c1 [Example 107, 2-methoxy-N—((R)-1-naphthalen-2-yl-ethyl)-4-pyridin-4-yl-benzamide]	50 to 500
Cc1ccc(C(C)NC(=O)c2ccc(-c3ccncc3)cc2)o1 (centres unmarked) [Example 71]	50 to 500
C[C@@H](NC(=O)c1ccc(-c2ccncc2)cc1)c1cccc2ccccc12 [Example 47, N-[(1R)-1-(1-naphthyl)ethyl]-4-pyridin-4-ylbenzamide]	< 50
CN(C)CC(NC(=O)c1ccc(-c2ccncc2)cc1)c1ccccc1 (centres unmarked) [Example 30, N-[2-(dimethylamino)-1-phenylethyl]-4-pyridin-4-ylbenzamide]	< 50
COc1cccc([C@@H](C)NC(=O)c2ccc(-c3cc(F)ncc3C)cc2)c1 [Example 248, 4-(2-fluoro-5-methyl-pyridin-4-yl)-N—[(R)-1-(3-methoxy-phenyl)-ethyl]-benzamide]	< 50
COC[C@@H](NC(=O)c1ccc(-c2ccncc2)cc1)c1ccccc1 [Example 188, N—((S)-2-methoxy-1-phenyl-ethyl)-4-pyridin-4-yl-benzamide]	< 50
C[C@@H](NC(=O)c1ccc(-c2ccncc2)cc1)c1ccccn1 [Example 80, 4-pyridin-4-yl-N-[(1R)-1-pyridin-2-ylethyl]benzamide]	50 to 500
C[C@@H](NC(=O)c1ccc(-c2ccncc2)cc1)c1ccc(Cl)cc1 [Example 90, N-[(1R)-1-(4-chlorophenyl)ethyl]-4-pyridin-4-ylbenzamide]	< 50
CC(NC(=O)c1ccc(-c2ccncc2)cc1)c1cccc(OCc2ccccc2)c1 (centres unmarked) [Example 151, N-[1-(3-benzyloxy-phenyl)-ethyl]-4-pyridin-4-yl-benzamide]	< 50
C[C@@H](NC(=O)c1ccc(-c2ccncc2)cc1)c1ccc2ccccc2c1 [Example 91, N-[(1R)-1-(2-naphthyl)ethyl]-4-pyridin-4-ylbenzamide]	< 50
O=C(NC(Cn1ccnc1)c1ccccc1)c1ccc(-c2ccncc2)cc1 (centres unmarked) [Example 35, N-[2-(1H-imidazol-1-yl)-1-phenylethyl]-4-pyridin-4-ylbenzamide]	< 50
C[C@@H](NC(=O)c1ccc(-c2ccncc2)c(F)c1)c1cccc2ccccc12 [Example 217, 3-fluoro-N—((R)-1-naphthalen-1-yl-ethyl)-4-pyridin-4-yl-benzamide]	< 50

Now from value to compound:

Ki [nM]	Structure (SMILES)
< 50	O=C(N[C@H](CCO)c1ccccc1)c1ccc(-c2ccncc2)cc1 [Example 2, N-[(1R)-3-hydroxy-1-phenylpropyl]-4-pyridin-4-ylbenzamide]
< 50	Cc1cnccc1-c1ccc(C(=O)N[C@H](C)c2cccc3ccccc23)cc1 [Example 159, 4-(3-methyl-pyridin-4-yl)-N—((R)-1-naphthalen-1-yl-ethyl)-benzamide]
50 to 500	CN1CCN(CC(NC(=O)c2ccc(-c3ccncc3)cc2)c2ccccc2)CC1 (centres unmarked) [Example 33, N-[2-(4-methylpiperazin-1-yl)-1-phenylethyl]-4-pyridin-4-ylbenzamide]
< 50	O=C(NC(CN1CCCC1)c1ccccc1)c1ccc(-c2ccncc2)cc1 (centres unmarked) [Example 31, N-(1-phenyl-2-pyrrolidin-1-ylethyl)-4-pyridin-4-ylbenzamide]
50 to 500	O=C(NC(CO)c1cccnc1)c1ccc(-c2ccncc2)cc1 (centres unmarked) [Example 39, N-(2-hydroxy-1-pyridin-3-ylethyl)-4-pyridin-4-ylbenzamide]
< 50	COc1cccc(C(CN2CCCC2)NC(=O)c2ccc(-c3ccncc3)cc2)c1 (centres unmarked) [Example 149, N-[1-(3-methoxy-phenyl)-2-pyrrolidin-1-yl-ethyl]-4-pyridin-4-yl-benzamide]
50 to 500	COc1cc(-c2ccncc2)ccc1C(=O)N[C@@H](C)c1ccccc1 [Example 114, 2-methoxy-N—((S)-1-phenyl-ethyl)-4-pyridin-4-yl-benzamide]
< 50	O=C(NC(CO)c1cccc2ccccc12)c1ccc(-c2ccncc2)cc1 (centres unmarked) [Example 187, N-(2-hydroxy-1-naphthalen-1-yl-ethyl)-4-pyridin-4-yl-benzamide]
< 50	COc1cc(-c2ccncc2)ccc1C(=O)N[C@H](C)c1ccccc1 [Example 112, 2-methoxy-N—((R)-1-phenyl-ethyl)-4-pyridin-4-yl-benzamide]
< 50	O=C(N[C@@H](Cc1ccccc1)CN1CCCC1)c1ccc(-c2ccncc2)cc1 [Example 28, N-[(1S)-1-benzyl-2-pyrrolidin-1-ylethyl]-4-pyridin-4-ylbenzamide]
< 50	CC(NC(=O)c1ccc(-c2ccncc2)cc1)c1cccs1 (centres unmarked) [Example 72, 4-pyridin-4-yl-N—O-(2-thienyl)ethypenzamide]
50 to 500	COc1cccc([C@H](C)NC(=O)c2ccc(-c3ccncc3C)cc2)c1 [Example 179, N—[(S)-1-(3-methoxy-phenyl)-ethyl]-4-(3-methyl-pyridin-4-yl)-benzamide]
